We go through 9 compounds from patent US5049673A, “Fluorescent indicator dyes for calcium working at long wavelengths” (The Regents of the University of California, priority 1987, dated 1991).

Like-named read-outs stand apart in the source and are kept apart here.

Data set [1] can be described thus: Absorbance and fluorescence properties in the presence and absence of Ca2+. In kind it is physicochemical. The procedure: FIG. 4. Excitation (A) and emission (B) spectra for fluo-3 at 22°±2° C. in buffers with free Ca^2+ values ranging from <1 nM to 58 microM. The titration was done starting with 3.5 ml of 100 mM KCl, 10 mM K-MOPS, 10 mM K2 H2 EGTA, 15 microM fluo-3, pH 7.03. The "O" Ca spectrum was recorded, then to reach n mM CaEGTA, (10-n) mM EGTA, n=1-10, aliquots of 3.5/(11-n) ml were iteratively discarded and replaced by equal volumes of 100 mM KCl, 10 mM K-MOPS, 10 mM K2 CaEGTA, 15 microM fluo-3, pH 7.0. After each iteration the pH (range 6.99 to 7.05) and spectra were recorded; each spectrum is labeled by the calculated free Ca^2+ in micromolar. The excitation and emission bandwidths were 1.9 nm and 4.6 nm respectively. All spectra have been normalized with respect to the peak of the 58 microM (n=10) curve. In A, emission was collected at 530 nm, and the excitation was corrected for lamp and monochromator characteristics using a rhodamine B quantum counter. In B, excitation was at 490 nm, and the emission spectrum is uncorrected for monochromator and detector sensitivity. The slightly low amplitude of the curve at 3.6 microM [Ca^2+ ] is probably due to a small error in resetting the excitation monochromator to 490 nm.
FIG. 6. The product of fluorescence quantum efficiency and extinction coefficient vs. free [Ca^2+ ] (note log axes for both) for quin-2, fura-2, indo-1, rhod-2, and fluo-3. All data are for room temperature, 0.1 M KCl, no added Mg^2+. […] The curve for fluo-3 used the data of Table I with extinction coefficients of 7.5×10^4 to 8.35×10^4 at 506 nm; the curve for rhod-2 assumed a Ca^2+ -independent extinction coefficient of 1×10^5 M^-1 cm^-1.
Examples of the synthetic routes than can be used to produce the new dyes of the present invention are outlined in FIGS. 2 and 3. Full descriptions of the reaction conditions are described below under the section entitled Compound Synthesis. Optical spectra were measured as described by Grynkiewicz, et al. (1985). (See ref. 9.) Quantum efficiencies of fluorescence were obtained (see ref. 10) by comparing the integral of the corrected emission spectrum of the test sample with that of a solution of rhodamine B in ethanol, quantum efficiency assumed to be 0.97 (see ref. 11), or fluorescein in 0.1 M NaOH, quantum efficiency 0.91 (see ref. 10). The concentration of the reference dye was adjusted to match the absorbance of the test sample at the wavelength of excitation.
The absorbance and fluorescence properties for the new indicators in the presence and absence of Ca^2+ are shown in Table I. The absorbance spectra were much as one would expect for rhodamine or fluorescein chromophores, though extinction coefficients (not shown) were often low in the dyes as initially isolated. Because fluo-3 appeared to be a very useful indicator compound, extra effort was expended in its purification. Eventually, quite respectable extinction coefficients were obtained, 7.9×10^4 and 8.3×10^4 M^-1 cm^-1 at 503 and 506 nm, respectively for free and Ca^2+ -bound fluo-3. Ca^2+ binding was expected to shift the absorbance maxima to longer wavelengths,since it would prevent the BAPTA amino nitrogen from donating electron density to the 9-position of the xanthene. Electron-withdrawal and donation to the central carbon of triphenylmethane dyes are known to shift absorbance peaks to longer and shorter wavelengths, respectively (see ref. 19). Indeed, Ca^2+ binding caused red shifts, but of very small magnitude, 1-3 nm, and with little change in peak height.
Fluo-3 has a visibly pinkish tinge because its chlorine atoms shift its spectra to wavelengths slightly longer than those of fluo-2, just as 2,7-dichlorofluorescein is bathochromically shifted from fluorescein. […] Thus the Ca^2+ complex of fluo-3 fluoresced 35- to 40-fold more brightly than the Ca^2+ -free dye (see FIG. 4). This degree of enhancement is the greatest yet reported for a fluorescent Ca^2+ indicator. […]

The conditions of data set [2]: for Kd: read-out: Effective dissociation constant Kd for Ca^2+, pH 7.0-7.5, ionic strengths 0.1-0.15.
Experimental: For measurement of Ca^2+ dissociation constants at pH 7.0-7.5, free [Ca^2+ ] levels were controlled by Ca^2+ /EGTA, Ca^2+ /HEEDTA and Ca^2+ /NTA buffers (see ref. 12) The apparent dissociation constant for the Ca^2+ EGTA complex was taken as 327 nM at pH 7.03 in 100 mM KCl, 20° C. The logarithms of the apparent dissociation constants for the Ca^2+ HEEDTA and Ca^2+ NTA complexes were calculated to be 1.70 - pH and 3.41 - pH, respectively, at room temperature in 0.1 M KCl. To test the pH dependence of the apparent Ca^2+ -dissociation constant of fluo-3 (see FIG. 4), it was necessary to vary pH from 5.6 to 8 while maintaining constant free Ca^2+. EGTA, HEEDTA, and NTA are too pH-dependent to cover this pH range, so dibromo-BAPTA (chelator 2c of ref 13) was used instead. […] To compensate for that small dependence, the pH titration was started from pH 5.6 with the appropriate amount of Ca^2+ in the buffer. Then, at each higher pH, the appropriate small addition of CaCl2 was made to compensate for the increase in the effective Ca^2+ affinity of the dibromo-BAPTA.
The conditions of data set [3]: cited from earlier work; for Kd: room temperature, 0.1 M KCl, no added Mg^2+, read-out: Ca^2+ dissociation constant (Kd) used for FIG. 6.
For data set [4] the following is noted: cited from earlier work.
The conditions of data set [5]: parent compounds, literature; read-out: Ca^2+ dissociation constant of parent compounds; cited from earlier work.

As to `Cc1ccc(N(CC(=O)O)CC(=O)O)c(OCCOc2cc(-c3c4ccc(=O)cc-4oc4cc(O)ccc34)ccc2N(CC(=O)O)CC(=O)O)c1` [fluo-2, 9-(4-bis(carboxymethyl)amino-3-(2-(2-bis(carboxymethyl)amino-5-methylphenoxy)ethoxy)phenyl)-6-hydroxy-3H-xanthen-3-one], under “absence of Ca^2+”, the “Fluorescence quenching on titration from pH 7.7 to 4.1” value is recorded as “almost completely quenched”; the “Ratio between the brightness of the deprotonated and the protonated species” value is 67. Moreover, in data set [1], the “Fluorescence maxima, emission, with excess Ca” value (“Fluorescence maxima, emission” below) is recorded as 518 nm; the “Fluorescence maxima, excitation, with excess Ca” value (“Fluorescence maxima, excitation” for short) is on record as 493 nm; the “Fluorescence quantum efficiency, excess Ca” value is listed as “.125”; the “Fluorescence ratio, excess vs. zero Ca” value was 31. Also, in data set [1], the “Fluorescence quantum efficiency, zero Ca” value is reported as “.004”. In addition, the Kd in data set [2] amounted to 0.37 µM.
On to `Cc1ccc(N(CC(=O)O)CC(=O)O)c(OCCOc2cc(-c3c4ccc(=[N+](C)C)cc-4oc4cc(N(C)C)ccc34)ccc2N(CC(=O)O)CC(=O)O)c1` [rhod-2], for which, in data set [1], the “Fluorescence maxima, emission” value came out at 576 nm; the “Fluorescence maxima, excitation” value is given as 553 nm; the “Fluorescence quantum efficiency, excess Ca” value is “.102”; the “Fluorescence ratio, excess vs. zero Ca” value is listed as 3.4. The “Fluorescence quantum efficiency, zero Ca” value in data set [1] was “.03”. Also, the Kd in data set [2] came out at 1 µM.
`Cc1ccc(N(CC(=O)O)CC(=O)O)c(OCCOc2cc(-c3cc4ccc(C(=O)O)cc4[nH]3)ccc2N(CC(=O)O)CC(=O)O)c1` [indo-1]: the Kd in data set [3] is 0.25 µM.
For the compound `O=C1OC2(c3ccc(O)cc3Oc3cc(O)ccc32)c2ccccc21` [fluorescein], the “Quantum efficiency of reference dye in 0.1 M NaOH” value in data set [4] (0.1 M NaOH) is on record as 0.91.
As for `O=c1ccc2c(-c3ccccc3)c3ccc(O)cc3oc-2c1` [9-phenylfluorone], the “Quantum efficiency of model compound” value in data set [4] is listed as 0.21.
Take `Cc1ccc(N(CC(=O)O)CC(=O)O)c(OCCOc2cc(-c3c4ccc(=O)cc-4oc4cc(O)ccc34)c(O)cc2N(CC(=O)O)CC(=O)O)c1` [fluo-1, 9-(6-hydroxy-4-bis(carboxymethyl)amino-3-(2-(2-bis(carboxymethyl)amino-5-methylphenoxy)ethoxy)phenyl)-6-hydroxy-3H-xanthen-3-one]: the “pH dependence of fluorescence” value was “some pH dependence”. In data set [1], the “Fluorescence maxima, emission” value worked out at 521 nm; the “Fluorescence maxima, excitation” value is reported as 499 nm; the “Fluorescence quantum efficiency, excess Ca” value is “.014”; the “Fluorescence ratio, excess vs. zero Ca” value is 3.3. Besides, the “Fluorescence quantum efficiency, zero Ca” value in data set [1] was “.0042”. For the same compound, the Kd in data set [2] stood at 0.7 µM. Moreover, the “Lowering of Ca^2+ affinity by hydroxy group vs unsubstituted rhod-2 and fluo-2” value in data set [2] (vs rhod-2 and fluo-2) is “more than two-fold”.
`O=C(O)CN(CC(=O)O)c1ccccc1OCCOc1ccccc1N(CC(=O)O)CC(=O)O` [BAPTA, 1,2-bis(2-amino-phenoxy)ethane N,N,N',N'-tetraacetic acid]: the Kd in data set [5] was 0.11 µM.
For the compound `CCN(CC)c1ccc2c(-c3ccccc3C(=O)O)c3ccc(=[N+](CC)CC)cc-3oc2c1` [rhodamine B], the “Quantum efficiency of reference dye in ethanol” value in data set [4] (in ethanol) is 0.97.
For `COc1cc(N(CC(=O)O)CC(=O)O)c2nc(COc3cc(C)ccc3N(CC(=O)O)CC(=O)O)ccc2c1` [quin-2, 2-[[2-[bis(carboxymethyl)amino]-5-methylphenoxy]-6-methoxy-8-bis(carboxymethyl)amino]quinolline], the Extinction coefficient at 339 nm in data set [3] (339 nm, independent of Ca^2+) was 4600 M⁻¹ cm⁻¹. The Kd in data set [3] is 0.078 µM.
